# Measurements taken from ChEMBL document CHEMBL3612049, “Design, synthesis and molecular docking of salicylic acid derivatives containing metronidazole as a new class of antimicrobial agents” (Bioorg Med Chem, 2015).
# Test system: Pseudomonas aeruginosa
# Test: Antimicrobial activity against Pseudomonas aeruginosa ATCC 13525 after 18 hrs by broth microdilution method
# Format: functional
# Details: ATCC 13525, 18 h
row,SMILES,MIC
1,Cc1ncc([N+](=O)[O-])n1CCOC(=O)c1ccccc1OCc1ccccc1C(F)(F)F,100 µg/mL
2,Cc1ncc([N+](=O)[O-])n1CCOC(=O)c1ccccc1OCc1cccc(C(F)(F)F)c1,100 µg/mL
3,Cc1ncc([N+](=O)[O-])n1CCOC(=O)c1ccccc1OCc1ccc(C(F)(F)F)cc1,50 µg/mL
4,Cc1ncc([N+](=O)[O-])n1CCOC(=O)c1ccccc1OCc1c(F)cccc1F,50 µg/mL
5,Cc1ncc([N+](=O)[O-])n1CCOC(=O)c1ccccc1OCc1ccc(F)c(F)c1,100 µg/mL
6,Cc1ncc([N+](=O)[O-])n1CCOC(=O)c1ccccc1OCc1ccc(Cl)c(Cl)c1,1.57 µg/mL
7,Cc1ncc([N+](=O)[O-])n1CCOC(=O)c1ccccc1OCc1cc(Cl)ccc1Cl,6.25 µg/mL
8,Cc1ncc([N+](=O)[O-])n1CCOC(=O)c1ccccc1OCc1ccc(Cl)c(F)c1,6.25 µg/mL
9,Cc1ncc([N+](=O)[O-])n1CCOC(=O)c1ccccc1OCc1cccc(Cl)c1F,6.25 µg/mL
10,Cc1ncc([N+](=O)[O-])n1CCOC(=O)c1ccccc1OCc1cc(F)c(F)c(F)c1,50 µg/mL
11,Cc1ncc([N+](=O)[O-])n1CCOC(=O)c1ccccc1OCc1c(F)c(F)c(F)c(F)c1F,100 µg/mL
12,O=C(N[C@H](CO)[C@H](O)c1ccc([N+](=O)[O-])cc1)C(Cl)Cl [CHLORAMPHENICOL],0.78 µg/mL
13,CC1(C)S[C@@H]2[C@H](NC(=O)Cc3ccccc3)C(=O)N2[C@H]1C(=O)O [PENICILLIN G],6.25 µg/mL

# Test system: Staphylococcus aureus
# Test: Antimicrobial activity against Staphylococcus aureus ATCC 6538 after 18 hrs by broth microdilution method
# Format: functional
# Details: ATCC 6538, 18 h
row,SMILES,MIC
1,Cc1ncc([N+](=O)[O-])n1CCOC(=O)c1ccccc1OCc1ccccc1C(F)(F)F,100 µg/mL
2,Cc1ncc([N+](=O)[O-])n1CCOC(=O)c1ccccc1OCc1cccc(C(F)(F)F)c1,50 µg/mL
3,Cc1ncc([N+](=O)[O-])n1CCOC(=O)c1ccccc1OCc1ccc(C(F)(F)F)cc1,25 µg/mL
4,Cc1ncc([N+](=O)[O-])n1CCOC(=O)c1ccccc1OCc1c(F)cccc1F,25 µg/mL
5,Cc1ncc([N+](=O)[O-])n1CCOC(=O)c1ccccc1OCc1ccc(F)c(F)c1,25 µg/mL
6,Cc1ncc([N+](=O)[O-])n1CCOC(=O)c1ccccc1OCc1ccc(Cl)c(Cl)c1,0.39 µg/mL
7,Cc1ncc([N+](=O)[O-])n1CCOC(=O)c1ccccc1OCc1cc(Cl)ccc1Cl,1.57 µg/mL
8,Cc1ncc([N+](=O)[O-])n1CCOC(=O)c1ccccc1OCc1ccc(Cl)c(F)c1,3.13 µg/mL
9,Cc1ncc([N+](=O)[O-])n1CCOC(=O)c1ccccc1OCc1cccc(Cl)c1F,3.13 µg/mL
10,Cc1ncc([N+](=O)[O-])n1CCOC(=O)c1ccccc1OCc1cc(F)c(F)c(F)c1,25 µg/mL
11,Cc1ncc([N+](=O)[O-])n1CCOC(=O)c1ccccc1OCc1c(F)c(F)c(F)c(F)c1F,50 µg/mL
12,O=C(N[C@H](CO)[C@H](O)c1ccc([N+](=O)[O-])cc1)C(Cl)Cl [CHLORAMPHENICOL],1.57 µg/mL
13,CC1(C)S[C@@H]2[C@H](NC(=O)Cc3ccccc3)C(=O)N2[C@H]1C(=O)O [PENICILLIN G],0.78 µg/mL

# Test system: Bacillus spizizenii
# Test: Antimicrobial activity against Bacillus subtilis ATCC 6633 after 18 hrs by broth microdilution method
# Format: functional
# Details: ATCC 6633, 18 h
row,SMILES,MIC
1,Cc1ncc([N+](=O)[O-])n1CCOC(=O)c1ccccc1OCc1ccccc1C(F)(F)F,50 µg/mL
2,Cc1ncc([N+](=O)[O-])n1CCOC(=O)c1ccccc1OCc1cccc(C(F)(F)F)c1,100 µg/mL
3,Cc1ncc([N+](=O)[O-])n1CCOC(=O)c1ccccc1OCc1ccc(C(F)(F)F)cc1,25 µg/mL
4,Cc1ncc([N+](=O)[O-])n1CCOC(=O)c1ccccc1OCc1c(F)cccc1F,25 µg/mL
5,Cc1ncc([N+](=O)[O-])n1CCOC(=O)c1ccccc1OCc1ccc(F)c(F)c1,50 µg/mL
6,Cc1ncc([N+](=O)[O-])n1CCOC(=O)c1ccccc1OCc1ccc(Cl)c(Cl)c1,0.78 µg/mL
7,Cc1ncc([N+](=O)[O-])n1CCOC(=O)c1ccccc1OCc1cc(Cl)ccc1Cl,0.78 µg/mL
8,Cc1ncc([N+](=O)[O-])n1CCOC(=O)c1ccccc1OCc1ccc(Cl)c(F)c1,3.13 µg/mL
9,Cc1ncc([N+](=O)[O-])n1CCOC(=O)c1ccccc1OCc1cccc(Cl)c1F,1.57 µg/mL
10,Cc1ncc([N+](=O)[O-])n1CCOC(=O)c1ccccc1OCc1cc(F)c(F)c(F)c1,25 µg/mL
11,Cc1ncc([N+](=O)[O-])n1CCOC(=O)c1ccccc1OCc1c(F)c(F)c(F)c(F)c1F,50 µg/mL
12,O=C(N[C@H](CO)[C@H](O)c1ccc([N+](=O)[O-])cc1)C(Cl)Cl [CHLORAMPHENICOL],1.57 µg/mL
13,CC1(C)S[C@@H]2[C@H](NC(=O)Cc3ccccc3)C(=O)N2[C@H]1C(=O)O [PENICILLIN G],0.78 µg/mL

# Test system: not listed separately
# Test: Inhibition of Staphylococcus aureus TyrRS expressed in Escherichia coli BL21 using L-[ring-3,5-3H]-tyrosine preincubated for 10 mins by liquid scintillation counting
# Details: not given
row,SMILES,IC50
1,Cc1ncc([N+](=O)[O-])n1CCOC(=O)c1ccccc1OCc1ccccc1C(F)(F)F,7.8 µM
2,Cc1ncc([N+](=O)[O-])n1CCOC(=O)c1ccccc1OCc1cccc(C(F)(F)F)c1,8.3 µM
3,Cc1ncc([N+](=O)[O-])n1CCOC(=O)c1ccccc1OCc1ccc(C(F)(F)F)cc1,6.3 µM
4,Cc1ncc([N+](=O)[O-])n1CCOC(=O)c1ccccc1OCc1c(F)cccc1F,6.9 µM
5,Cc1ncc([N+](=O)[O-])n1CCOC(=O)c1ccccc1OCc1ccc(F)c(F)c1,6 µM
6,Cc1ncc([N+](=O)[O-])n1CCOC(=O)c1ccccc1OCc1ccc(Cl)c(Cl)c1,2.3 µM
7,Cc1ncc([N+](=O)[O-])n1CCOC(=O)c1ccccc1OCc1cc(Cl)ccc1Cl,2.7 µM
8,Cc1ncc([N+](=O)[O-])n1CCOC(=O)c1ccccc1OCc1ccc(Cl)c(F)c1,3.2 µM
9,Cc1ncc([N+](=O)[O-])n1CCOC(=O)c1ccccc1OCc1cccc(Cl)c1F,2.9 µM
10,Cc1ncc([N+](=O)[O-])n1CCOC(=O)c1ccccc1OCc1cc(F)c(F)c(F)c1,6.7 µM
11,Cc1ncc([N+](=O)[O-])n1CCOC(=O)c1ccccc1OCc1c(F)c(F)c(F)c(F)c1F,8 µM

# Test system: Escherichia coli
# Test: Antimicrobial activity against Escherichia coli ATCC 35218 after 18 hrs by broth microdilution method
# Format: functional
# Details: ATCC 35218, 18 h
row,SMILES,MIC
1,Cc1ncc([N+](=O)[O-])n1CCOC(=O)c1ccccc1OCc1ccccc1C(F)(F)F,100 µg/mL
2,Cc1ncc([N+](=O)[O-])n1CCOC(=O)c1ccccc1OCc1cccc(C(F)(F)F)c1,100 µg/mL
3,Cc1ncc([N+](=O)[O-])n1CCOC(=O)c1ccccc1OCc1ccc(C(F)(F)F)cc1,50 µg/mL
4,Cc1ncc([N+](=O)[O-])n1CCOC(=O)c1ccccc1OCc1c(F)cccc1F,50 µg/mL
5,Cc1ncc([N+](=O)[O-])n1CCOC(=O)c1ccccc1OCc1ccc(F)c(F)c1,100 µg/mL
6,Cc1ncc([N+](=O)[O-])n1CCOC(=O)c1ccccc1OCc1ccc(Cl)c(Cl)c1,3.13 µg/mL
7,Cc1ncc([N+](=O)[O-])n1CCOC(=O)c1ccccc1OCc1cc(Cl)ccc1Cl,3.13 µg/mL
8,Cc1ncc([N+](=O)[O-])n1CCOC(=O)c1ccccc1OCc1ccc(Cl)c(F)c1,6.25 µg/mL
9,Cc1ncc([N+](=O)[O-])n1CCOC(=O)c1ccccc1OCc1cccc(Cl)c1F,12.5 µg/mL
10,Cc1ncc([N+](=O)[O-])n1CCOC(=O)c1ccccc1OCc1cc(F)c(F)c(F)c1,100 µg/mL
11,Cc1ncc([N+](=O)[O-])n1CCOC(=O)c1ccccc1OCc1c(F)c(F)c(F)c(F)c1F,100 µg/mL
12,O=C(N[C@H](CO)[C@H](O)c1ccc([N+](=O)[O-])cc1)C(Cl)Cl [CHLORAMPHENICOL],6.25 µg/mL
13,CC1(C)S[C@@H]2[C@H](NC(=O)Cc3ccccc3)C(=O)N2[C@H]1C(=O)O [PENICILLIN G],6.25 µg/mL

# Test system: not listed separately
# Test: Cytotoxicity against human macrophages after 24 hrs by MTT assay
# Format: cell-based, Macrophage
# Details: not given
row,SMILES,CC50 at 24 h
1,Cc1ncc([N+](=O)[O-])n1CCOC(=O)c1ccccc1OCc1ccccc1C(F)(F)F,233 µM
2,Cc1ncc([N+](=O)[O-])n1CCOC(=O)c1ccccc1OCc1cccc(C(F)(F)F)c1,251 µM
3,Cc1ncc([N+](=O)[O-])n1CCOC(=O)c1ccccc1OCc1ccc(C(F)(F)F)cc1,242 µM
4,Cc1ncc([N+](=O)[O-])n1CCOC(=O)c1ccccc1OCc1c(F)cccc1F,277 µM
5,Cc1ncc([N+](=O)[O-])n1CCOC(=O)c1ccccc1OCc1ccc(F)c(F)c1,256 µM
6,Cc1ncc([N+](=O)[O-])n1CCOC(=O)c1ccccc1OCc1ccc(Cl)c(Cl)c1,188 µM
7,Cc1ncc([N+](=O)[O-])n1CCOC(=O)c1ccccc1OCc1cc(Cl)ccc1Cl,193 µM
8,Cc1ncc([N+](=O)[O-])n1CCOC(=O)c1ccccc1OCc1ccc(Cl)c(F)c1,180 µM
9,Cc1ncc([N+](=O)[O-])n1CCOC(=O)c1ccccc1OCc1cccc(Cl)c1F,190 µM
10,Cc1ncc([N+](=O)[O-])n1CCOC(=O)c1ccccc1OCc1cc(F)c(F)c(F)c1,267 µM
11,Cc1ncc([N+](=O)[O-])n1CCOC(=O)c1ccccc1OCc1c(F)c(F)c(F)c(F)c1F,236 µM

# Test system: not listed separately
# Test: Hemolytic activity in human erythrocytes assessed as hemoglobin release after 3 hrs by spectrophotometric analysis
# Format: ADME, cell-based, Erythrocyte
# Details: read-out: LC50
row,SMILES,HC50 at 3 h
1,Cc1ncc([N+](=O)[O-])n1CCOC(=O)c1ccccc1OCc1ccccc1C(F)(F)F,> 10 µM
2,Cc1ncc([N+](=O)[O-])n1CCOC(=O)c1ccccc1OCc1cccc(C(F)(F)F)c1,> 10 µM
3,Cc1ncc([N+](=O)[O-])n1CCOC(=O)c1ccccc1OCc1ccc(C(F)(F)F)cc1,> 10 µM
4,Cc1ncc([N+](=O)[O-])n1CCOC(=O)c1ccccc1OCc1c(F)cccc1F,> 10 µM
5,Cc1ncc([N+](=O)[O-])n1CCOC(=O)c1ccccc1OCc1ccc(F)c(F)c1,> 10 µM
6,Cc1ncc([N+](=O)[O-])n1CCOC(=O)c1ccccc1OCc1ccc(Cl)c(Cl)c1,> 10 µM
7,Cc1ncc([N+](=O)[O-])n1CCOC(=O)c1ccccc1OCc1cc(Cl)ccc1Cl,> 10 µM
8,Cc1ncc([N+](=O)[O-])n1CCOC(=O)c1ccccc1OCc1ccc(Cl)c(F)c1,> 10 µM
9,Cc1ncc([N+](=O)[O-])n1CCOC(=O)c1ccccc1OCc1cccc(Cl)c1F,> 10 µM
10,Cc1ncc([N+](=O)[O-])n1CCOC(=O)c1ccccc1OCc1cc(F)c(F)c(F)c1,> 10 µM
11,Cc1ncc([N+](=O)[O-])n1CCOC(=O)c1ccccc1OCc1c(F)c(F)c(F)c(F)c1F,> 10 µM
